Assay results reported in US20220117266A1, “NICKEL CHELATION THERAPY” (priority 2019, published 2022).
“And” between values parts separate entries of the source, which are not always exact repeats. Identical values can stand only once. Like-named read-outs stand apart in the source and are kept apart here.

How the values were obtained:
[1] = system: C. jejuni (strain 81-176, ATCC BAA-2151); experiment: Growth inhibition, solid plates (CFU); type: cell-based, Campylobacter jejuni; conditions: 0.5 mM metal salt in combination with 2 mM DMG
C. jejuni 81-176 = experiment: Growth inhibition, liquid 96-well checkerboard (OD600, MIC, MBC); type: cell-based, Campylobacter jejuni; conditions: for OD600: DMG 0 mM, 24 h
Method: Growth inhibition assays: liquid (96-well) plates experiments. This type of experiment can only be conducted with C. jejuni since the gas requirement for C. concisus (H2-enriched microaerobic) is not compatible with the use of 96-well plates. C. jejuni cells were grown as described above, harvested, and resuspended in sterile NaCl (8 g/L) to an OD600 of 0.1, corresponding approximately to 5×10^8 to 1×10^9 cells/mL. […] Wells were serially (2-fold) diluted in each direction (horizontal and vertical) to introduce all combinations. Wells with no DMG or metal compounds served as (positive) growth controls, and wells with no bacteria served as background (negative growth) controls. A typical protocol and loading plan are described in Table 7. The starting inoculum was at OD600 of 0.05, which corresponds approximately to 2.5×10^8 cells/mL to 5×10^8 cells/mL. After 24 hours incubation under microaerobic conditions at 37° C., OD600 was recorded using a 96 well-plate reader (Microtek). […] Resulting growth (or lack of growth) was examined after overnight culturing; the lowest concentration that inhibits 99.9% of the original culture was defined as MBC. MIC and MBC were determined based on tests (plates) done in triplicate.

Aβ40 peptide [2] = target: T1, Aβ40 peptide (Homo sapiens, UniProt P05067); experiment: Thioflavin T (ThT)-based Aβ40 aggregation assay; type: biochemical; design: purchased rPeptides, Watkinsville, Ga., USA kit #A-1180-1; host or cells: E. coli; conditions: for increase of average Aβ40 aggregation rate compared to no supplemental metal control: pH 7.4; for Relative Aβ40 aggregation rate (% control): DMG 0 μM; for Aβ40 peptide aggregation under all pHs tested: pH 6.5, 7.5 or 8.5, 25 mM Aβ40, CuSO4 25 mM, ZnSO4 10 mM or DMG 100 mM (so in the source)
Method: Amyloid Beta aggregation. […] This kit contained human recombinant Aβ40 peptide (>97% pure, as determined by manufacturer's HPLC) with the following sequence […] (SEQ ID NO:1), as provided by the manufacturer. […] The aggregation of Aβ40, was shown by the increase in fluorescence (lex=440 nm/lem=485 nm) over time, was followed for 60 min or 120 min, with reading every three or five min, using a Synergy MX reader (Biotek, Winooski, Vt.). A ThT-only background control (no Aβ40 peptide) was included in triplicate in all experiments and subtracted from all readings. The aggregation rate, defined as the increase in fluorescence per min (RFU/min), was calculated by using the formula [A(440,485) at T40min)−A(440,485) at T20min]/20.
Target sequence in this assay (P05067 672-711): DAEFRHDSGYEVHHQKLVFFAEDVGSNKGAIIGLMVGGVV

[3] = system: C. jejuni (strain NCTC 11168); experiment: C. jejuni-chicken colonization experiment; type: in vivo, chickens; conditions: Experiment 1, ad libitum CuSO4 (0.2 mM), 9 days p.i.
Method: Since chickens are natural hosts for C. jejuni, and chicken meat is one of the main sources of campylobacteriosis in humans, it was important to test the efficacy of DMG alone or in combination with copper in this animal model. Two independent trials were conducted, as described in FIG. 22. In both trials, the treatment was administered through ad libitum drinks, starting two to three days before C. jejuni inoculation (with strain NCTC 11168), and going through the end of each experiment. […] Nine days after inoculation with C. jejuni, chickens were euthanized, and their ceca were isolated for bacterial count. […] The treatment was administered two days before inoculation with C. jejuni, and chicken ceca were harvested eight days after inoculation.

[4] = mouse, in vivo
Aβ40 peptide [5] = target: T1, Aβ40 peptide; experiment: Isothermal titration calorimetry; type: binding; design: purchased rPeptides, Watkinsville, Ga., USA kit #A-1180-1; host or cells: E. coli; DS (entropy): unit not given here; conditions: 20 μM Aβ40, 25° C.
Text: Nickel binding to human recombinant Aβ40 peptide is confirmed by isothermal titration calorimetry. Isothermal titration calorimetry (ITC) has been already used to analyze copper or zinc binding to various Aβ peptides, including Ab40 (Talmard et al. Biochemistry 46, 13658-13666 (2007); Sacco et al. JBIC Journal of Biological Inorganic Chemistry 17, 531-541 (2012); Hatcher et al. The journal of physical chemistry B 112, 8160-8164 (2008)). In the current study, we used ITC to determine whether nickel can bind the Aβ40 peptide. The peptide (same used in ThT-based aggregation assays) was present in the sample cell at a concentration of 20 μM. Twenty injections of NiSO4 (1 mM solution, 5 μM increments in sample cell) were performed every 5 min under constant stirring (350 rpm) at 25° C., and the heat release was measured (FIG. 9). The heat release profile indicates Ni binding to the peptide (FIG. 9, top Panel).
Isothermal Titration Calorimetry. […] Briefly, 1 mg of lyophilized Aβ40 peptide (#A-1157-2, rPeptides) was resuspended with 1% NH4OH to a concentration of 250 μM, sonicated for 15-20 sec, before being diluted to a final concentration of 20 μM Aβ40 using ddH2O and TBS 10×, pH 7.4 (working buffer: NH4OH 0.2%, TBS 1×, pH 7.4 (“NTBS”)). […] All samples were degassed for 15 min at 25° C. before use. Titration was initiated using a program for 20 injections (2.38 μL each, every 5 min) with continuous stirring (350 rpm) at constant temperature (25° C.). ITC data were analyzed using NanoAnalyze 1.2 software (TA Instruments). Data obtained with the control experiment (Aβ40 peptide in sample cell, buffer in syringe) were subtracted from each experiment to account for any injection-related heat change.
Target sequence in this assay (P05067 672-711): as above

Aβ40 peptide [6] = target: T1, Aβ40 peptide; design: yields Aβ peptides of various lengths (38, 40 or 42 amino acids); conditions: Talmard et al. 2007; read-out: Kd previously reported; cited from earlier work
Target sequence in this assay (P05067 672-711 limits assumed): as the sequence (P05067 672-711) above

[7] = cited from earlier work
[8] = Acute oral LD50 (literature); type: in vivo, mice
[9] = 100 mM metal (so in the source)
[10] = experiment A, supplemental metal 10 μM
[11] = experiment B, supplemental metal 100 μM

With [Cl-].[Cl-].[Co+2] [CO^2+, CoCl2, reference compound] the “effect on C. jejuni growth” value [1] was “no noticeable effect”, the MBC (C. jejuni 81-176; metal with DMG 0 mM) was > 1020 µM and the MIC (C. jejuni 81-176; metal with DMG 0 mM) was > 1020 µM. For the same compound, the MBC (C. jejuni 81-176; metal with DMG 0.5 mM) was > 1020 µM, the MIC (C. jejuni 81-176; metal with DMG 0.5 mM) was > 1020 µM and the MBC (C. jejuni 81-176; metal with DMG 1 mM) was > 1020 µM. For the same compound, the MIC (C. jejuni 81-176; metal with DMG 1 mM) was > 1020 µM, the MBC (C. jejuni 81-176; metal with DMG 4 mM) was 512 µM and the MIC (C. jejuni 81-176; metal with DMG 4 mM) was 256 µM.
With O=S(=O)([O-])[O-].[Cu+2] [Cu, CuSO4, reference compound] the “increase of average Aβ40 aggregation rate compared to no supplemental metal control” value (shortened to “increase … to no supplemental metal control”) (Aβ40 peptide [2]; 10 mM metal (so in the source)) was “no significant effect”, the “increase … to no supplemental metal control” value (Aβ40 peptide [2]; [9]) was “no significant effect” and the “Relative Aβ40 aggregation rate (% control)” value (Aβ40 peptide [2]; [10]) was 103 ± 19 % control. The “Relative Aβ40 aggregation rate (% control)” value (Aβ40 peptide [2]; experiment C, supplemental metal 100 μM) was 77 ± 2 % control, the “Aβ40 peptide aggregation under all pHs tested” value (Aβ40 peptide [2]) was “negligible” and the “C. jejuni Average CFUs per g of cecum (x10^8)” value [3] was 5.95 x10^8 CFUs per g of cecum. The “Chickens Cj-free (n=)” value ([3]; total n=4) was 0, the “Chickens Colonized (n=)” value ([3]; total n=4) was 4 and the OD600 (C. jejuni 81-176; CuSO4 2 uM) was 0.29. The OD600 (C. jejuni 81-176; CuSO4 4 uM) was 0.23, the OD600 (C. jejuni 81-176; CuSO4 8 uM) was 0.31 and the OD600 (C. jejuni 81-176; CuSO4 16 uM) was 0.38. The OD600 (C. jejuni 81-176; CuSO4 32 uM) was 0.26, the OD600 (C. jejuni 81-176; CuSO4 64 uM) was 0.27 and the OD600 (C. jejuni 81-176; CuSO4 128 uM) was 0.23. It also gave an OD600 (C. jejuni 81-176; CuSO4 256 uM) of 0.38, an OD600 (C. jejuni 81-176; CuSO4 512 uM) of 0.28 and an OD600 (C. jejuni 81-176; CuSO4 1024 uM) of 0.43. For the same compound, the MBC (C. jejuni 81-176; metal with DMG 0 mM) was > 1020 µM, the MIC (C. jejuni 81-176; metal with DMG 0 mM) was > 1020 µM and the MBC (C. jejuni 81-176; metal with DMG 0.5 mM) was > 1020 µM. For the same compound, the MIC (C. jejuni 81-176; metal with DMG 0.5 mM) was 1020 µM.
In the case of CC(=NO)C(C)=NO [D-1885, Dimethylglyoxime], the “condition of animals given chelator alone” value [4] is reported as “appeared ill”.
With O=S(=O)([O-])[O-].[Mn+2] [MnSO4] the “effect on C. jejuni growth” value [1] was “no noticeable effect”.
With O=S(=O)([O-])[O-].[Ni+2] [Ni, NiSO4, reference compound] the “increase … to no supplemental metal control” value (Aβ40 peptide [2]; 10 mM metal (so in the source)) was 2.5 fold, the “increase … to no supplemental metal control” value (Aβ40 peptide [2]; [9]) was 5.7 fold and the “Ni(II)-induced Aβ40 aggregation at pH 6.5, compared to pH 7.5” value (Aβ40 peptide [2]; NiSO4 25 mM (so in the source)) was “faster”. The “Ni(II)-induced Aβ40 aggregation at pH 8.5” value (Aβ40 peptide [2]; NiSO4 25 mM (so in the source)) was “absent”, the “Relative Aβ40 aggregation rate (% control)” value (Aβ40 peptide [2]; [10]) was 252 ± 8 % control and the “Relative Aβ40 aggregation rate (% control)” value (Aβ40 peptide [2]; [11]) was 567 ± 61 % control. For the same compound, the “effect on C. jejuni growth” value [1] was “no noticeable effect”, the “DH (enthalpy)” value (Aβ40 peptide [5]) was -1.2 kcal/mol and the “DS (entropy)” value (Aβ40 peptide [5]) was 86. For the same compound, the apparent stoichiometry (Aβ40 peptide [5]) was 0.7 mole Ni(II) per mole of Aβ40 p, the Kd (Aβ40 peptide [5]; pH 7.4, read-out: apparent Kd) was 4.2 µM and ~4.2 µM and the MBC (C. jejuni 81-176; metal with DMG 0 mM) was > 1020 µM. The MIC (C. jejuni 81-176; metal with DMG 0 mM) was > 1020 µM, the MBC (C. jejuni 81-176; metal with DMG 0.5 mM) was > 1020 µM and the MIC (C. jejuni 81-176; metal with DMG 0.5 mM) was > 1020 µM. The MBC (C. jejuni 81-176; metal with DMG 1 mM) was > 1020 µM, the MIC (C. jejuni 81-176; metal with DMG 1 mM) was > 1020 µM and the MBC (C. jejuni 81-176; metal with DMG 2 mM) was > 1020 µM. The MIC (C. jejuni 81-176; metal with DMG 2 mM) was > 1020 µM, the MBC (C. jejuni 81-176; metal with DMG 4 mM) was > 1020 µM and the MIC (C. jejuni 81-176; metal with DMG 4 mM) was > 1020 µM.
In the case of O=S(=O)([O-])[O-].[Zn+2] [Zn, ZnSO4, reference compound], the Kd (Aβ40 peptide [6]) is listed as 7 ± 3 µM, the “increase … to no supplemental metal control” value (Aβ40 peptide [2]; 10 mM metal (so in the source)) is listed as 5 fold and the “increase … to no supplemental metal control” value (Aβ40 peptide [2]; [9]) is listed as 14 fold. The “Relative Aβ40 aggregation rate (% control)” value (Aβ40 peptide [2]; [10]) was 505 ± 29 % control, the “Relative Aβ40 aggregation rate (% control)” value (Aβ40 peptide [2]; [11]) was 1423 ± 258 % control and the “Aβ40 peptide aggregation under all pHs tested” value (Aβ40 peptide [2]) was “fastest and sharpest increase in fluorescence”. For the same compound, the “effect on C. jejuni growth” value [1] was “no noticeable effect”, the MBC (C. jejuni 81-176; metal with DMG 0 mM) was > 1024 µM and the MIC (C. jejuni 81-176; metal with DMG 0 mM) was 512 µM. For the same compound, the MBC (C. jejuni 81-176; metal with DMG 0.5 mM) was > 1024 µM, the MIC (C. jejuni 81-176; metal with DMG 0.5 mM) was 512 µM and the MBC (C. jejuni 81-176; metal with DMG 1 mM) was > 1024 µM. For the same compound, the MIC (C. jejuni 81-176; metal with DMG 1 mM) was 512 µM, the MBC (C. jejuni 81-176; metal with DMG 2 mM) was > 1024 µM and the MIC (C. jejuni 81-176; metal with DMG 2 mM) was 512 µM. The MBC (C. jejuni 81-176; metal with DMG 4 mM) was > 1024 µM and the MIC (C. jejuni 81-176; metal with DMG 4 mM) was 512 µM.
In the case of CCN(CC)C(=S)SSC(=S)N(CC)CC [disulfiram], the “acute oral LD50” value [7] is listed as 1.013 mg/kg and the “LD50 amount per mouse” value [8] is listed as “approximately 20 μg”.
